Patent US20250009714A1, “SELECTION AND TREATMENT OF SUBJECTS HAVING A CIRCULATING MYELOID CELL INFLAMMATORY PHENOTYPE” (Tranquis Therapeutics, Inc., priority 2021, published 2025)

Columns and labels:
SOD1-G93A mice [1] = conditions: SOD1 mouse model; cited from earlier work
[2] = Plasma levels of TQS-168 after a single oral dose in wild-type mice; assay type: in vivo, mouse; conditions: single 50 mg/kg dose
Description: FIG. 2A plots plasma concentration of TQS-168 over time after a single oral dose of […] TQS-168 in mice. FIG. 2B is a timeline representative of the protocol of the SOD1 mouse study. Plasma levels of TQS-168 in wild-type mice were analyzed subsequently to a single 50 mg/kg dose of TQS-168.

[3] = tested on: Ly6C^hi inflammatory monocytes in SOD1-G93A mice; assay: Fraction of inflammatory monocytes in SOD1 mice (flow cytometry of blood); assay type: in vivo, mouse; conditions: 50 mg/kg oral gavage every 3 days from Day 70 until Day 90
Source text: The SOD1-G93A transgenic mouse has proven to be a useful tool in the study of ALS. A large majority of […] in the Superoxide dismutase 1 gene. SOD1-G93A mice express human SOD1 with the G93A mutation under control of the human SOD1 promoter. The mice show a phenotype similar to Amyotrophic Lateral Sclerosis in humans. 60-day old transgenic mice overexpressing the human SOD1-G93A ALS-causing mutation (stock #002726) and wild-type mice (WT; C57BL/6J) were obtained from the Jackson Labs. Oral dosing by gavage started at 70 days of age. SOD1 mice received either TQS-168 50 mg/kg every 3 days or vehicle (same volume and frequency). The staff that dosed and assessed the mice were blinded to treatment allocation. Blood samples were collected in EDTA tubes at 2 time points: 90 days of age and time of euthanasia. Blood samples were processed for flow cytometry and plasma cytokine analysis. Flow cytometry methods employed are the same as those employed in Example 1 and Example 2.

CD14+CD16+ monocytes = assay: Four-hour ex vivo incubation of whole blood of ALS patients, FACS of CD14+CD16+ monocytes; assay type: cell-based, human; conditions: 4-hour ex vivo incubation
Description: Whole blood samples from patients with ALS were shipped at room temperature. The percentage of CD14+CD16+ monocytes were determined by fluorescence activated cell sorting (FACS). Briefly, whole blood was lysed with lysis buffer (BD Bioscience) for 10 minutes at 37° C. Lysed blood was centrifuged at 500 g for 10 min. Supernatant was decanted and the cell pellet washed with HBSS (Hank's balanced salt solution). Cells were centrifuged at 300 g for 10 min. Cells were resuspended in FACS buffer (PBS+2% FBS[…]). Fixed cells (100 μL) were washed with PBS. Cells (100 μL) were resuspended in PBS containing Zombie Aqua (Biolegend; 1:500 dilution). Cells were incubated in the dark at room temperature for 5 minutes. Cells were washed with FACS buffer. Cells were stained with 5 μL CD16 and 5 μL CD14 antibodies (BD Bioscience). Cells were incubated with antibodies for 30 minutes. Cells were washed with FACS buffer. Cells were resuspended in FACS buffer. Cells were acquired on a flow cytometer. FIG. 5B outlines the experimental protocol for assessing the effects of ex vivo incubation with TQS-168 on the inflammatory phenotype of circulating myeloid cells in peripheral blood samples of ALS patients. Samples were obtained from iSpecimen (Lexington, MA) and BioIVT (Westbury, NY). Blood samples were processed within 36 hours of collection and were never frozen. […]

SOD1-G93A mice [4] = assay: Survival in SOD1 mice (time from birth to euthanasia, righting reflex); assay type: in vivo, mouse
Description: 60-day old transgenic mice overexpressing the human SOD1-G93A ALS-causing mutation (stock #002726) were obtained from the Jackson Labs. Dosing started at 70 days of age. SOD1 mice received either TQS-168 50 mg/kg every 3 days or vehicle (same volume and frequency) by oral gavage. The righting reflex (ability to turn over when place on their backs) was assessed every 3 days when mice were <110 days old and every day after age 110 days. Mice were euthanized if they could not right themselves in 20 seconds after being placed onto their back. Time from birth to euthanasia was calculated for each mouse and compared in the two groups.

[5] = tested on: Ppargc1α (PGC-1α) expression; conditions: direct molecular binding partner unknown; cited from earlier work
[6] = tested on: Ly6C^hi inflammatory monocytes; assay: Ex vivo LPS stimulation of wild-type mouse whole blood, FACS of Ly6C^hi cells; assay type: cell-based; conditions: LPS stimulated, increasing concentrations of TQS-168, 5 hours at 37° C.
Description: Lipopolysaccharide (LPS) was used to induce circulating myeloid cells from wild type mice to adopt an inflammatory phenotype in vitro. […] As schematized in FIG. 1C, blood samples from wild-type mice were collected in EDTA tubes and stimulated with LPS. Whole blood was incubated at 37° C. with increasing concentrations of TQS-168 for 5 hours. Whole blood was lysed with lysis buffer from BD Bioscience for 10 minutes at 37C. Lysed blood was centrifuged at 500 g for 10 minutes. The supernatant was decanted, and cell pellet washed with Hank's balanced salt solution (HBSS). The cells were then centrifuged at 300 g for 10 minutes. They were subsequently resuspended in 2 mM EDTA FACS buffer. Fixed cells (100 μL) were washed with PBS. The cells (100 μL) were resuspended in PBS containing Zombie Aqua solution (Biolegend) at a 1:500 dilution. The cells were incubated in the dark at room temperature for 5 minutes. The cells were then washed with FACS buffer. The cells were stained with Cd11b, Ly6G, and Ly6C antibodies (BD Bioscience). The cells were then incubated with antibodies for 30 minutes. They were then washed with FACS buffer and then resuspended also in FACS buffer. Finally, the cells were acquired on flow cytometer.

[7] = tested on: plasma cytokines (IL-6, IL-10, TNFα, interferon gamma, CXCL5, etc.); assay: Plasma cytokines in SOD1 mice (48-plex Procarta panel); assay type: in vivo, mouse; conditions: 50 mg/kg oral gavage every 3 days from Day 70 until day of euthanasia
Description: 60-day old transgenic mice overexpressing the human SOD1-G93A ALS-causing mutation (stock #002726) and wild-type mice (WT; C57BL/6J) were obtained from the Jackson Labs. Oral dosing by gavage started at 70 days of age. SOD1 mice received either TQS-168 50 mg/kg every 3 days or vehicle (same volume and frequency). The staff that dosed and assessed the mice were blinded to treatment allocation. Blood samples were collected in EDTA tubes at 2 time points: 90 days of age and time of euthanasia. Blood samples were processed for flow cytometry and plasma cytokine analysis. Flow cytometry methods employed are the same as those employed in Example 1 and Example 2.
Blood samples were collected from SOD1 mice at Day 90 and time of euthanasia. Plasma samples were assayed using the 48-plex Procarta panel (Thermo Fisher).

Compound | survival benefit in the SOD1 model (approved ALS treatments) (SOD1-G93A mice [1]) | oral bioavailability (plasma levels) [2] | increase in circulating Ly6C^hi monocytes in SOD1 mice [3] | percentage of CD14+CD16+ monocytes after incubation (CD14+CD16+ monocytes; 30 μM, from 1.5% without compound) | change in percentage of intermediate (CD14+CD16+) monocytes with increasing concentrations (CD14+CD16+ monocytes) | survival compared with vehicle (SOD1-G93A mice [4]; 50 mg/kg oral gavage every 3 days) | median survival (SOD1-G93A mice [4]; 50 mg/kg oral gavage every 3 days from 70 days of age) [days] | difference in median survival versus vehicle (SOD1-G93A mice [4]; 50 mg/kg oral gavage every 3 days, vehicle 129) [days] | effect on Ppargc1α (PGC-1α) expression [5] | LPS-induced increase in percentage of Ly6C^hi inflammatory monocytes [6] | increase in plasma cytokines from Day 90 to day of euthanasia [7]
CC1=NN(c2ccccc2)C(=O)C1 [edaravone] | failed to display survival benefits |  |  |  |  |  |  |  |  |  | 
CC(C)(C)c1ccc(-c2nc3ccccc3[nH]2)cc1 [TQS-168, 2-(4-tert-butylphenyl)-1H-benzimidazole] |  | orally bioavailable | inhibited the increase in circulating Ly6C^hi monocytes | less than 1% | dose-dependent decrease | survived longer | 135 | 6 | activator of Ppargc1α (PGC-1α) expression | inhibits the LPS-induced increase in Ly6C^hi monocytes | inhibited this increase in plasma cytokines
